Data from patent US4677107A, “Anti-peptic ulcer agent” (Dainippon Pharmaceutical Co., Ltd., priority 1983, dated 1987).

Tests used:
[1] = system: mouse-killing behavior of olfactory bulb-ablated rats; details: U.S. Pat. No. 4,237,135 and U.K. Pat. No. 2,017,698; cited from earlier work
[2] = U.S. Pat. No. 4,237,135 and U.K. Pat. No. 2,017,698; cited from earlier work
[3] = system: brain noradrenaline turnover; details: U.S. Pat. No. 4,237,135 and U.K. Pat. No. 2,017,698; cited from earlier work
[4] = U.S. Pat. No. 4,237,135 and U.K. Pat. No. 2,017,698; cited from earlier work; remark: listed apart in the source
[5] = Conversion after oral administration; assay type: in vivo; details: orally administered
[6] = U.S. Pat. No. 4,237,135 and U.K. Pat. No. 2,017,698; cited from earlier work; remark: listed apart in the source
[7] = Toxicological study, LD50 mouse; details: in vivo, po, Mouse (ICR strain)
Protocol: (§1) Further, the toxicological study was conducted according to the conventional method on Compound B. The results are shown in Table 5.

[8] = system: ulceration induced by exposure to stress (restraint and water immersion); test: Effect on the ulceration induced by exposure to stress (restraint and water immersion); assay type: in vivo, male Wistar strain rats; details: ulcer index = sum of length (mm) of lesions
Protocol: [I] Effect on the ulceration induced by exposure to stress (restraint and water immersion): Male Wistar strain rats (weighing, about 200 g) were placed in a stress cage which served to immobilize the animals therein and then immersed in a water bath of 23° C. to the height of xiphoid of the animals according to the method of Takagi et al. [cf. Takagi, K. and Okabe, S., Japan. J. Pharmacol., 18, 9 (1968)]. After 20 hours, the animals were sacrificed and the stomach was removed. The stomach was inflated with 13 ml of saline and placed in 5% formalin solution for 5 minutes. After washing with saline, the stomach was cut open along the greater curvature and the length (mm) of each lesion in the glandular portion was measured using a dissecting microscope (×12). The sum of the length (mm) of each lesions in a stomach was indicated as an ulcer index. In case of reference experiment using butylscopolamine bromide, a photograph of the mucosal surface of stomach was taken after the stomach was treated in the same manner as described above. The photograph was magnified by nine times, and the sum of the area (mm^2) of each lesions in a stomach was indicated as an ulcer index. The ulcer index in drug treated groups was compared with that in control group, and thereby, inhibitory percentage was calculated and then ED50 value, i.e., the dose required for 50% inhibition of the ulcer index, was determined by the usual graphic method. Drugs to be tested were suspended in 0.5% tragacanth solution and administered orally 30 minutes before the immersion. In the control group, a vehicle (0.5% tragacanth solution) was administered.

pupil size = test: Mydriatic action in rats; assay type: in vivo, male Wistar strain rats; details: for Percent mydriasis: one hour after administration, 3 mm dilation = 100 percent
Text: [IV] Mydriatic action in rats:
Male Wistar strain rats (weighing, 150-200 g) were used. Pupil size of the animals was twice measured microscopically just before and one hour after administration of drugs at a distance of 30 cm from the source of a constant light (30 W fluorescent light) according to the method of Pulewka [cf. Arch. exp. Path. U. Pharmakol., 168, 307 (1932)]. Based on the change between the first measured pupil size and the second measured pupil size, mydriasis percentage was calculated provided that mydriasis percentage is supposed to be 100 percent in case of 3 mm dilation of pupil size in diameter. Drugs to be tested were suspended in 0.5% tragacanth solution and administered. In the control group, a vehicle (0.5% tragacanth solution) was administered.

gastric secretion = test: Effect on gastric secretion in rats (pylorus ligation, total acid content); assay type: in vivo, male Wistar strain rats
Protocol: [III] Effect on gastric secretion in rats: Male Wistar strain rats (weighing, about 200 g) were fasted for 24 hours before experiment. The pylorus was ligated under ether anaesthesia. Four hours after the ligation, the stomach was removed under ether anaesthesia. The gastric content was collected and centrifuged, and the secretory volume, pH and acid content of the supernatant were measured. The acid content was measured by titrating to pH 7.0 with 0.02N NaOH using pH meter (Hitachi Horiba, M-5). The total acid content of the drug treated groups was compared with that of the control group, and thereby, the reduction percentage of acid content was calculated and then ED50, i.e. the dose required for 50% reduction of acid content, was determined by the usual graphic method. Drugs to be tested were suspended in 0.5% tragacanth solution and administered orally 30 minutes before the ligation. In the control group, a vehicle (0.5% tragacanth solution) was administered.

[9] = Toxicological study, LD50 rat; details: in vivo, po, Rat (SD strain)
Protocol: as §1

[10] = system: ulceration induced by pylorus-ligation; test: Effect on the ulceration induced by pylorus-ligation in rats; assay type: in vivo, male Wistar strain rats
Protocol: [II] Effect on the ulceration induced by pylorus-ligation in rats: Male Wistar strain rats (weighing about 190 g) were fasted for 48 hours before experiment. The pylorus of each rat was ligated under ether anaesthesia according to the method of Shay et al. [cf. Shay, H., et al., Gastroenterology, 5, 43-61 (1945)]. Each of the animals was then allowed to stand abstained from food and water in a cage. After 18 hours, the animals were sacrificed under ether anaesthesia, and the stomachs were removed and cut open along the greater curvature. […] 4: marked ulcers more than two 5: perforated ulcer The ulcer index in drug treated groups was compared to that in the control group, and thereby, the inhibitory percentage was calculated and then ED50, i.e. the dose required for 50% inhibition of ulcer index, was determined by the usual graphic method. Drugs to be tested were suspended in 0.5% tragacanth solution and administered 30 minutes before the ligation. In the control group, a vehicle (0.5% tragacanth solution) was administered.

## CCN1CCN(c2cc(-c3ccccc3)c3ccccc3n2)CC1 [2-(4-ethyl-1-piperazinyl)-4-phenylquinoline]
[1]
  suppression of mouse-killing behavior of olfactory bulb-ablated rats: suppression of mouse-killing behavior of olfactory bulb-ablated rats
[2]
  anti-reserpine activity: showed anti-reserpine activity
[3]
  inhibition of brain noradrenaline turnover: inhibition of brain noradrenaline turnover
[4]
  anti-tremorine activity: has also anti-tremorine activity
[5]
  conversion on oral administration: partially converted into 2-(1-piperazinyl)-4-phenylquinoline
[6]
  anti-tetrabenazine activity: anti-tetrabenazine activity

## CCN1CCN(c2cc(-c3ccccc3)c3ccccc3n2)CC1.O=C(O)/C=C\C(=O)O.O=C(O)/C=C\C(=O)O [Compound B, 2-(4-ethyl-1-piperazinyl)-4-phenylquinoline dimaleate]
[7]
  LD50: ~1200 mg/kg
[8]; 1 mg/kg p.o.
  Ulcer index Inhibitory %: 44.5%
[8]; 2 mg/kg p.o.
  Ulcer index Inhibitory %: 66.6%
[8]; 5 mg/kg p.o.
  Ulcer index Inhibitory %: 90.1%
[8]; Rattus norvegicus, po, 30 minutes before immersion, rats, read-out: ED50 (dose required for 50% inhibition of the ulcer index)
  ED50: 1.2 mg/kg
Pupil size; 5 mg/kg p.o.
  Percent mydriasis: 0%
Pupil size; 10 mg/kg p.o.
  Percent mydriasis: 2.7%
Pupil size; 20 mg/kg p.o.
  Percent mydriasis: 4.7%
Pupil size; 50 mg/kg p.o.
  Percent mydriasis: 2.0%
Pupil size; 100 mg/kg p.o.
  Percent mydriasis: 2.7%
Pupil size; rats, up to 100 mg/kg
  mydriatic action (in words): did entirely not show any mydriatic action even in a dose of 100 mg/kg
Gastric secretion; 0.5 mg/kg p.o.
  Total acid content Reduction %: 27.8%
Gastric secretion; 1 mg/kg p.o.
  Total acid content Reduction %: 24.0%
Gastric secretion; 2 mg/kg p.o.
  Total acid content Reduction %: 47.8%
Gastric secretion; 5 mg/kg p.o.
  Total acid content Reduction %: 60.2%
Gastric secretion; Rattus norvegicus, po, 30 minutes before ligation, rats, 4 hours after ligation, read-out: ED50 (dose required for 50% reduction of acid content)
  ED50: 2.8 mg/kg
[9]
  LD50: ~3600 mg/kg
[10]; 5 mg/kg p.o.
  Ulcer index Inhibitory %: 0%
[10]; 10 mg/kg p.o.
  Ulcer index Inhibitory %: 28.6%
[10]; 20 mg/kg p.o.
  Ulcer index Inhibitory %: 57.1%
[10]; 50 mg/kg p.o.
  Ulcer index Inhibitory %: 78.6%
[10]; Rattus norvegicus, po, 30 minutes before ligation, rats, 18 hours, ulcer index 0 to 5, read-out: ED50 (dose required for 50% inhibition of ulcer index)
  ED50: 19 mg/kg
